Measured values: patent publication US9012443B2 (Amgen Inc., priority 2011, dated 2015)
“And” between values parts separate entries of the source, which are not always exact repeats. Equal values may be shown once.

Target: Nav 1.7 (Homo sapiens (Human), UniProt Q15858)
Test: Nav 1.7 IWQ in vitro assay (IonWorks Quattro population patch-clamp)
Assay type: cell-based
Settings: for IC50: 293 cells stably transfected with Nav 1.7, second part of table, read-out: Nav1.7 IWQ IC50 IP
Experimental: Nav 1.7 or Nav 1.5 IWQ In Vitro Assay
293 Cells stably transfected with either Nav 1.7 or Nav 1.5 were recorded in population patch-clamp mode with the IonWorks® Quattro automated electrophysiology system in accordance with the manufacturer's specifications (Molecular Devices, LLC, Sunnyvale, Calif.). Sodium channel currents were measured in response to a train of depolarizations that induced successively greater inactivation.
Cells were then left unclamped for a period of 3 to 8 minutes while a single concentration of test compound was added. Cells were then reclamped and put through the same voltage protocol. Current at the end of the 26th pulse to −20 mV was subtracted from the peak current evoked by the 26th pulse to −20 mV to correct for leak current. Percent block was calculated for each concentration in duplicate, and IC50 curves were fitted to percent block as a function of concentration.

Nav 1.7, sequence (Q15858 whole entry): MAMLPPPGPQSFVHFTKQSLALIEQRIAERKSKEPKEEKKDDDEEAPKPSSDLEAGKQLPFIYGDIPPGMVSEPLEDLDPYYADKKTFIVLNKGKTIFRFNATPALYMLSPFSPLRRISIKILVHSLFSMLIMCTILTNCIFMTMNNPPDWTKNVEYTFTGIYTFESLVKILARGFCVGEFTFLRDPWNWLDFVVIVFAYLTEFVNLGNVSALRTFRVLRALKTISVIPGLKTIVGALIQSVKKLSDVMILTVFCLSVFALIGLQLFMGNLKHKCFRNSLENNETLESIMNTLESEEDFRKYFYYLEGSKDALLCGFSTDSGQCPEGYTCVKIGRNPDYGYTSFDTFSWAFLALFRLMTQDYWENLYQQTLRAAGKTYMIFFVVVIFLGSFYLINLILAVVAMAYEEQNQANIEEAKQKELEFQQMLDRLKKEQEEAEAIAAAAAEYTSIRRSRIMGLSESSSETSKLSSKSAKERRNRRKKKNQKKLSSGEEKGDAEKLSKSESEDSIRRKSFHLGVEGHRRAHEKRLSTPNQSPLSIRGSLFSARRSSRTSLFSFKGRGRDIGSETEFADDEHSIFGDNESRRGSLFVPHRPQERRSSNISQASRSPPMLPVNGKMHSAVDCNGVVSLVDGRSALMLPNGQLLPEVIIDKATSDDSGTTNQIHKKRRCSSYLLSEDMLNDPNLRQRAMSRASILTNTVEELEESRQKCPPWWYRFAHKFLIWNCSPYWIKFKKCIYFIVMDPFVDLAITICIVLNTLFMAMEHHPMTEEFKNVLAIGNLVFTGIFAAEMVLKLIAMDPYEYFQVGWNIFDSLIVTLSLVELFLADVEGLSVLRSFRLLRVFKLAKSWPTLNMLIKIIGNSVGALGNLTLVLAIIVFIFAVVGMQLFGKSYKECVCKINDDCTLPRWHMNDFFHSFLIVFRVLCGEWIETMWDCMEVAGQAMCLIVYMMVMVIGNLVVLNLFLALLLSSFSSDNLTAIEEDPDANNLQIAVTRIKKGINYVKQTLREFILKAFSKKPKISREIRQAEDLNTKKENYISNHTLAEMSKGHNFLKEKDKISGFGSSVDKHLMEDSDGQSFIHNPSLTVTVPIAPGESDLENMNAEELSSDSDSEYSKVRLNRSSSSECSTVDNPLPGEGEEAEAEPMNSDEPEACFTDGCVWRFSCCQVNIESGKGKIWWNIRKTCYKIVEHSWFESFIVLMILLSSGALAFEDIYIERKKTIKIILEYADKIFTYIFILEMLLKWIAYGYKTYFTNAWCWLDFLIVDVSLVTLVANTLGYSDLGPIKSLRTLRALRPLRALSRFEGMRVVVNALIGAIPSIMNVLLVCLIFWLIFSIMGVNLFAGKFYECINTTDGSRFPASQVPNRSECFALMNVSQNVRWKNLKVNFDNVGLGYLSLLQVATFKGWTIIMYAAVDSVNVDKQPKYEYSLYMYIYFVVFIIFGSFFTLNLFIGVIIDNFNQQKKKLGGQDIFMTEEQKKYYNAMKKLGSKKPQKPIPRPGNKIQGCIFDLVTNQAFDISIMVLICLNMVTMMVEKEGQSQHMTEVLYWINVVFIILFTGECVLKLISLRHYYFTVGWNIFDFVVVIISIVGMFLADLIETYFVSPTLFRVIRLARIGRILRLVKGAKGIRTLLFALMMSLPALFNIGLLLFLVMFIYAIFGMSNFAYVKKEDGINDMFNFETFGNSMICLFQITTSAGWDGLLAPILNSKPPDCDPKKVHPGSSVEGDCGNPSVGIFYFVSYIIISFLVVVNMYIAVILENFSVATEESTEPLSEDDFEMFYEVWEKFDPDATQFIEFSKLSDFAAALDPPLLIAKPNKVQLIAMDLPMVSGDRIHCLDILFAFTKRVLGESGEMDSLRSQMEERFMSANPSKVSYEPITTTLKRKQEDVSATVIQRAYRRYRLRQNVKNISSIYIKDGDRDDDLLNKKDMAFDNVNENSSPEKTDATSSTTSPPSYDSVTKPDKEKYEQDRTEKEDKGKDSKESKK

| SMILES | IC50 | Nav1.7 Single Point Data IWQ (at […]) (%) |
| --- | --- | --- |
| COc1cc(C(F)(F)F)ccc1-c1nccc2cc(S(=O)(=O)Nc3cnccn3)ccc12 [Example 186, 1-(2-METHOXY-4-(TRIFLUOROMETHYL)PHENYL)-N-(PYRAZIN-2-YL)ISOQUINOLINE-6-SULFONAMIDE] | 2.34 µM and 0.37 µM | – |
| O=S(=O)(Nc1nccs1)c1ccc2c(N3CCN(c4ccc(Cl)c(Cl)c4)CC3)nccc2c1 [Example 247, 1-(4-(3,4-DICHLOROPHENYL)PIPERAZIN-1-YL)-N-(THIAZOL-2-YL)ISOQUINOLINE-6-SULFONAMIDE] | – | 35 |
| COc1cc(C(F)(F)F)ccc1-c1nccc2cc(S(=O)(=O)Nc3ccncn3)cnc12 [Example 292, 8-(2-METHOXY-4-(TRIFLUOROMETHYL)PHENYL)-N-(PYRIMIDIN-4-YL)-1,7-NAPHTHYRIDINE-3-SULFONAMIDE] | 3.94 µM | – |
| O=S(=O)(Nc1ccncn1)c1ccc2c(OCc3ccc(N4CCOCC4)cc3)nccc2c1 [Example 304, 1-((4-MORPHOLINOBENZYL)OXY)-N-(PYRIMIDIN-4-YL)ISOQUINOLINE-6-SULFONAMIDE] | > 10 µM | 32 |
| Cn1cc(CCOc2nccc3cc(S(=O)(=O)Nc4ccncn4)ccc23)cn1 [Example 305, 1-(2-(1-METHYL-1H-PYRAZOL-4-YL)ETHOXY)-N-(PYRIMIDIN-4-YL)ISOQUINOLINE-6-SULFONAMIDE] | > 10 µM | 24 |
| Cn1ncc2cccc(-c3nccc4cc(S(=O)(=O)Nc5ccncn5)ccc34)c21 [Example 306, 1-(1-METHYL-1H-INDAZOL-7-YL)-N-(PYRIMIDIN-4-YL)ISOQUINOLINE-6-SULFONAMIDE] | > 10 µM | 35 |
| Cc1c(-c2nccc3cc(S(=O)(=O)Nc4ccncn4)ccc23)ccc2c1cnn2C [Example 307] | > 10 µM | 40 |
| Cc1cc2c(cnn2C)cc1-c1nccc2cc(S(=O)(=O)Nc3ccncn3)ccc12 [Example 308] | > 10 µM | 45 |
| Cc1ccc2c(cnn2C)c1-c1nccc2cc(S(=O)(=O)Nc3ccncn3)ccc12 [Example 309] | > 10 µM | 27 |
| O=S(=O)(Nc1ccncn1)c1ccc2c(-c3cccc4cccnc34)nccc2c1 [Example 310, N-(PYRIMIDIN-4-YL)-1-(QUINOLIN-8-YL)ISOQUINOLINE-6-SULFONAMIDE] | > 10 µM | 46 |
| Cc1noc(C)c1-c1nccc2cc(S(=O)(=O)Nc3ccncn3)ccc12 [Example 311, 1-(3,5-DIMETHYLISOXAZOL-4-YL)-N-(PYRIMIDIN-4-YL)ISOQUINOLINE-6-SULFONAMIDE] | – | 29 |
| Cn1nc(C(F)(F)F)cc1-c1nccc2cc(S(=O)(=O)Nc3ccncn3)ccc12 [Example 312, 1-(1-METHYL-3-(TRIFLUOROMETHYL)-1H-PYRAZOL-5-YL)-N-(PYRIMIDIN-4-YL)ISOQUINOLINE-6-SULFONAMIDE] | > 10 µM | 47 |
| COc1nccc(NS(=O)(=O)c2ccc3c(-c4ccc(C(F)(F)F)cc4OC)nccc3c2)n1 [Example 313, 1-(2-METHOXY-4-(TRIFLUOROMETHYL)PHENYL)-N-(2-METHOXYPYRIMIDIN-4-YL)ISOQUINOLINE-6-SULFONAMIDE] | > 10 µM | 39 |
| COc1cc(C(F)(F)F)ccc1-c1nccc2cc(S(=O)(=O)NC(C)=O)ccc12 [Example 314, N-((1-(2-METHOXY-4-(TRIFLUOROMETHYL)PHENYL)ISOQUINOLIN-6-YL)SULFONYL)ACETAMIDE] | > 10 µM | 39 |
| Cn1ccnc1-c1nccc2cc(S(=O)(=O)Nc3nccs3)ccc12 [Example 315, 1-(1-METHYL-1H-IMIDAZOL-2-YL)-N-(THIAZOL-2-YL)ISOQUINOLINE-6-SULFONAMIDE 2,2,2-TRIFLUOROACETATE] | > 10 µM | 37 |
| O=S(=O)(Nc1ccncn1)c1ccc2c(C3CCCN3C3CCOCC3)nccc2c1 (stereo not drawn) [Example 316, N-(PYRIMIDIN-4-YL)-1-(1-(TETRAHYDRO-2H-PYRAN-4-YL)PYRROLIDIN-2-YL)ISOQUINOLINE-6-SULFONAMIDE 2,2,2-TRIFLUOROACETATE] | > 10 µM | 26 |
| N#Cc1cccc2cc(S(=O)(=O)Nc3ncns3)ccc12 [Example 317] | > 10 µM | 30 |
| Cc1nsc(NS(=O)(=O)c2ccc3c(-c4ccc(Cl)cc4C)nccc3c2)n1 [Example 356] | – | 27 |

The next lines start with the values.

| IC50 | Nav1.7 Single Point Data IWQ (at […]) (%) | SMILES |
| --- | --- | --- |
| 3.96 µM | – | Cc1nn(-c2ccccc2)nc1COc1nccc2cc(S(=O)(=O)Nc3ccncn3)ccc12 [Example 138, 1-((5-METHYL-2-PHENYL-2H-1,2,3-TRIAZOL-4-YL)METHOXY)-N-(PYRIMIDIN-4-YL)ISOQUINOLINE-6-SULFONAMIDE] |
| 6.73 µM | – | COc1ncccc1-c1nccc2cc(S(=O)(=O)Nc3ccncn3)ccc12 [Example 144, 1-(2-METHOXYPYRIDIN-3-YL)-N-(PYRIMIDIN-4-YL)ISOQUINOLINE-6-SULFONAMIDE] |
| 6.81 µM | – | COc1c(-c2nccc3cc(S(=O)(=O)Nc4ccncn4)ccc23)cccc1C(F)(F)F [Example 152, 1-(2-METHOXY-3-(TRIFLUOROMETHYL)PHENYL)-N-(PYRIMIDIN-4-YL)ISOQUINOLINE-6-SULFONAMIDE] |
| 6.39 µM | – | COc1c(F)cccc1-c1nccc2cc(S(=O)(=O)Nc3ccncn3)ccc12 [Example 157, 1-(3-FLUORO-2-METHOXYPHENYL)-N-(PYRIMIDIN-4-YL)ISOQUINOLINE-6-SULFONAMIDE] |
| 4.83 µM | – | Cc1cc(C#N)ccc1-c1nccc2cc(S(=O)(=O)Nc3ccncn3)ccc12 [Example 159] |
| 4.12 µM | – | O=S(=O)(Nc1ccncn1)c1ccc2c(-c3cccc4ccsc34)nccc2c1 [Example 162, 1-(BENZO[B]THIOPHEN-7-YL)-N-(PYRIMIDIN-4-YL)ISOQUINOLINE-6-SULFONAMIDE] |
| 6.61 µM | – | Cn1ccc2cccc(-c3nccc4cc(S(=O)(=O)Nc5ccncn5)ccc34)c21 [Example 164, 1-(1-METHYL-1H-INDOL-7-YL)-N-(PYRIMIDIN-4-YL)ISOQUINOLINE-6-SULFONAMIDE] |
| 1.39 µM | – | COc1ncc(F)cc1-c1nccc2cc(S(=O)(=O)Nc3ccncn3)ccc12 [Example 166, 1-(5-FLUORO-2-METHOXYPYRIDIN-3-YL)-N-(PYRIMIDIN-4-YL)ISOQUINOLINE-6-SULFONAMIDE] |
| 5.17 µM | – | COc1cnccc1-c1nccc2cc(S(=O)(=O)Nc3ccncn3)ccc12 [Example 169, 1-(3-METHOXYPYRIDIN-4-YL)-N-(PYRIMIDIN-4-YL)ISOQUINOLINE-6-SULFONAMIDE] |
| 2.65 µM | – | COc1ccncc1-c1nccc2cc(S(=O)(=O)Nc3ccncn3)ccc12 [Example 170, 1-(4-METHOXYPYRIDIN-3-YL)-N-(PYRIMIDIN-4-YL)ISOQUINOLINE-6-SULFONAMIDE] |
| 4.98 µM | – | O=S(=O)(Nc1ccncn1)c1ccc2c(Oc3ccc(Cl)c(Cl)c3)nccc2c1 [Example 193, 1-(3,4-DICHLOROPHENOXY)-N-(PYRIMIDIN-4-YL)ISOQUINOLINE-6-SULFONAMIDE] |
| > 10 µM | 36 | Cn1ncnc1COc1nccc2cc(S(=O)(=O)Nc3ccncn3)ccc12 [Example 295, 1-((1-METHYL-1H-1,2,4-TRIAZOL-5-YL)METHOXY)-N-(PYRIMIDIN-4-YL)ISOQUINOLINE-6-SULFONAMIDE] |
| > 10 µM | 23 | O=S(=O)(Nc1ccncn1)c1ccc2c(OCCn3ccnn3)nccc2c1 [Example 296, 1-(2-(1H-1,2,3-TRIAZOL-1-YL)ETHOXY)-N-(PYRIMIDIN-4-YL)ISOQUINOLINE-6-SULFONAMIDE] |
| > 10 µM | 38 | O=S(=O)(Nc1ccncn1)c1ccc2c(OCc3cc4n(n3)CCCO4)nccc2c1 [Example 297, 1-((6,7-DIHYDRO-5H-PYRAZOLO[5,1-B][1,3]OXAZIN-2-YL)METHOXY)-N-(PYRIMIDIN-4-YL)ISOQUINOLINE-6-SULFONAMIDE] |
| > 10 µM | 29 | O=S(=O)(Nc1ccncn1)c1ccc2c(OCc3cccnc3N3CCOCC3)nccc2c1 [Example 298, 1-((2-MORPHOLINOPYRIDIN-3-YL)METHOXY)-N-(PYRIMIDIN-4-YL)ISOQUINOLINE-6-SULFONAMIDE] |
| > 10 µM | 49 | O=S(=O)(Nc1ccncn1)c1ccc2c(OCC(F)(F)C3CCOCC3)nccc2c1 [Example 299, 1-(2,2-DIFLUORO-2-(TETRAHYDRO-2H-PYRAN-4-YL)ETHOXY)-N-(PYRIMIDIN-4-YL)ISOQUINOLINE-6-SULFONAMIDE] |
| > 10 µM | 25 | Cc1cccc(CCCOc2nccc3cc(S(=O)(=O)Nc4ccncn4)ccc23)n1 [Example 300, 1-(3-(6-METHYLPYRIDIN-2-YL)PROPOXY)-N-(PYRIMIDIN-4-YL)ISOQUINOLINE-6-SULFONAMIDE] |
| > 10 µM | 40 | O=S(=O)(Nc1ccncn1)c1ccc2c(OCc3ccc(-n4ccnc4)cc3)nccc2c1 [Example 301, 1-((4-(1H-IMIDAZOL-1-YL)BENZYL)OXY)-N-(PYRIMIDIN-4-YL)ISOQUINOLINE-6-SULFONAMIDE] |
| > 10 µM | 20 | O=S(=O)(Nc1ccncn1)c1ccc2c(OCCCc3cn[nH]c3C(F)(F)F)nccc2c1 [Example 302, N-(PYRIMIDIN-4-YL)-1-(3-(5-(TRIFLUOROMETHYL)-1H-PYRAZOL-4-YL)PROPOXY)ISOQUINOLINE-6-SULFONAMIDE] |
| > 10 µM | 40 | O=S(=O)(Nc1ccncn1)c1ccc2c(OCCn3cccc3)nccc2c1 [Example 303, 1-(2-(1H-PYRROL-1-YL)ETHOXY)-N-(PYRIMIDIN-4-YL)ISOQUINOLINE-6-SULFONAMIDE] |
